The term melting point denotes the temperature of the solid-liquid transition.

This note sets out measurements from patent US9284303B2, “Benzimidazole cannabinoid agonists bearing a substituted heterocyclic group” (priority 2006, dated 2016).

Data set [1] concerns the target T1, human CB2 (hCB2) receptor (Homo sapiens, UniProt P34972).
T1 construct: expressed in transfected cells; host or cells: CHO-K1
The experiment in a line: Inhibition of forskolin-activated cAMP production upon activation of hCB2 (HTRF), CHO-K1 cells. Format: cell-based. As to conditions: for ratio CB2 agonism over CB1 agonism: Table C-1, selectivity hCB2 over hCB1. (In general: Changes in cAMP serve as a functional read-out for many G protein-coupled receptors.)

The target in data set [2] is T2, human CB1 (hCB1) receptor (Homo sapiens, UniProt P21554).
T2 construct: expressed in transfected cells; host or cells: CHO-K1
The experiment in a line: Inhibition of forskolin-activated cAMP production upon activation of hCB1 (HTRF), CHO-K1 cells. The data set is classed as cell-based. The note with it: forskolin-activated cAMP, pEC50=-log(EC50); for CB1 pEC50: hCB1-CHO-K1 cells; for EC50: CB1 pEC50, hCB1-CHO-K1 cells. An outline of the steps: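 CHO-K1 cells stably expressing hCB1 (20,000/well) were in HBSS stimulation buffer (1 mM IBMX, 10 mM MgCl2, 0.1% BSA, pH 7.4), with 6 μM forskolin in the compound buffer, 30 min at room temperature in the dark. cAMP was read as HTRF 665/620 ratio, normalized to DMSO and CP55490. Outputs were pEC50 and inhibition at 10 μM relative to CP55490.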

[3] abbreviates: hCB2-CHO-K1 cells, forskolin-activated cAMP, pEC50=-log(EC50), read-out: CB2 pEC50 (converted).

SMILES strings stand for the structures. Read-outs that look alike come from different tables or passages of the source. A value given as a limit tells only on which side of the number the result lay.

T1 sequence (P34972 whole entry): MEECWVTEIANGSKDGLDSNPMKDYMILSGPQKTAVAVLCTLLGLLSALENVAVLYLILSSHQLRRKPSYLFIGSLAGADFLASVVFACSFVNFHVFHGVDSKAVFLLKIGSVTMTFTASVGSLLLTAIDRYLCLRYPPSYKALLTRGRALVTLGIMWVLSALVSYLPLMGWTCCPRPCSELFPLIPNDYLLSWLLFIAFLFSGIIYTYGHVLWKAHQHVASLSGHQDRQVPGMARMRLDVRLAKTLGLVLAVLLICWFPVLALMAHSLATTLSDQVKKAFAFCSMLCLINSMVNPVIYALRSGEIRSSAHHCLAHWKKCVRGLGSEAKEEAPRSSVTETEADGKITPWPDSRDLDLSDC
T2 sequence (P21554 whole entry): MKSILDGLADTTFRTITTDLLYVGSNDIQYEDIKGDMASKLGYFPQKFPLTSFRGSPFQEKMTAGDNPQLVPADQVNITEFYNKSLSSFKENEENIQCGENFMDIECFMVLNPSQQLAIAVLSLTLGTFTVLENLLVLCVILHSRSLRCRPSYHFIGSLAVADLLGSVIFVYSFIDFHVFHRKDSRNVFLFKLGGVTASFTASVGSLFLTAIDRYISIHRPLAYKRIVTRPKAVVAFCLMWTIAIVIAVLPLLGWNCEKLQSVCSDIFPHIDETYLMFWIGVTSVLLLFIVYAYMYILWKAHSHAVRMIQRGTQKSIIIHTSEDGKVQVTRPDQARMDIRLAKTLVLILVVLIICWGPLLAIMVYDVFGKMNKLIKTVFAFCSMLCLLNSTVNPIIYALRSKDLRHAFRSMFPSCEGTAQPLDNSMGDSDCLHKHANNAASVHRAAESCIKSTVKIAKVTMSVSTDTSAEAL

In turn, `COCCCNc1cc(S(=O)(=O)c2ccc3c(c2)nc(C(C)(C)C)n3CC2CCOCC2)ccn1` [Co. No. 126] gave a melting point of 148.3 °C. Moreover, the “ratio CB2 agonism over CB1 agonism” value in data set [1] worked out at 1129. Moreover, in data set [1] (setting [3]), the EC50 was 0.851 nM. In data set [2], the “CB1 pEC50” value is 6.02.
`CC(C)(C)Cn1c(C(C)(C)C)nc2cc(S(=O)(=O)c3ccnc(F)c3)ccc21` [Co. No. 127] yielded a melting point of 135.4 °C. For the same molecule, in data set [1] (CB2 pEC50, hCB2-CHO-K1 cells, forskolin-activated cAMP, pEC50=-log(EC50)), the EC50 is 1.66 nM. The “ratio CB2 agonism over CB1 agonism” value in data set [1] worked out at 6026. This molecule gave an EC50 in data set [2] of over 10000 nM.
Turning to `CC(C)(C)c1nc2cc(S(=O)(=O)c3ccnc(F)c3)ccc2n1CCC1CCOCC1` [Co. No. 128], the melting point was 177.8 °C. The “ratio CB2 agonism over CB1 agonism” value in data set [1] is over 4786. The EC50 in data set [1] (setting [3]) was 2.09 nM. In addition, the EC50 in data set [2] is over 10000 nM.
On to `CN(C)CCCOc1cc(S(=O)(=O)c2ccc3c(c2)nc(C(C)(C)C)n3CC2CCOCC2)ccn1` [Co. No. 129], for which the melting point came out at 119.4 °C. For the same molecule, in data set [1], the “ratio CB2 agonism over CB1 agonism” value was 617. Also, the EC50 in data set [1] (setting [3]) is 15.5 nM. In addition, the EC50 in data set [2] was 9550 nM.
Molecule `CC(C)(C)c1nc2cc(S(=O)(=O)c3ccnc(F)c3)ccc2n1CC1CCS(=O)(=O)CC1` [Co. No. 133] showed a melting point of 220.8 °C. The “ratio CB2 agonism over CB1 agonism” value in data set [1] is recorded as over 2512. Also, in data set [1] (setting [3]), the EC50 is 3.98 nM. Also, the EC50 in data set [2] was over 10000 nM.
Turning to `CC(C)(C)c1nc2cc(S(=O)(=O)c3ccnc(F)c3)ccc2n1CC1CCC(=O)CC1` [Co. No. 134], the melting point is 164.8 °C. For the same molecule, in data set [1], the “ratio CB2 agonism over CB1 agonism” value came to 2786. For the same molecule, the EC50 in data set [1] (setting [3]) is 1.38 nM. This molecule also had an EC50 in data set [2] of 3800 nM.
`CC(C)(C)c1nc2cc(S(=O)(=O)c3ccnc(F)c3)ccc2n1CCN1CCCC1` [Co. No. 144] showed a melting point of 115.5 °C. Further, in data set [1], the “ratio CB2 agonism over CB1 agonism” value is over 3090. Also, the EC50 in data set [1] (setting [3]) is 3.24 nM. Moreover, in data set [2], the EC50 is over 10000 nM.
For `CC(C)(C)c1nc2cc(S(=O)(=O)c3ccnc(F)c3)ccc2n1C[C@H]1CC[C@H](O)CC1` [Co. No. 146], the melting point is 163.6 °C. The “ratio CB2 agonism over CB1 agonism” value in data set [1] was over 3981. The EC50 in data set [1] (setting [3]) is 2.51 nM. In data set [2], the EC50 was over 10000 nM.
In turn, `CCC(CC)Cn1c(C(C)(C)C)nc2cc(S(=O)(=O)c3ccnc(F)c3)ccc21` [Co. No. 147] had a melting point of 130.9 °C. Further, the “ratio CB2 agonism over CB1 agonism” value in data set [1] is over 10471. The EC50 in data set [1] (setting [3]) is 0.955 nM. Moreover, in data set [2], the EC50 was over 10000 nM.
`CC1(C)CC(Cn2c(C(C)(C)C)nc3cc(S(=O)(=O)c4ccnc(F)c4)ccc32)CCO1` (stereo not shown) [Co. No. 149] displayed a melting point of 159.4 °C. The “ratio CB2 agonism over CB1 agonism” value in data set [1] was over 8035. Further, the EC50 in data set [1] (setting [3]) was 1.26 nM. In data set [2], this molecule came in with an EC50 of over 10000 nM.
For `COCCOc1cc(S(=O)(=O)c2ccc3c(c2)nc(C(C)(C)C)n3CC2CCOCC2)ccn1` [Co. No. 150], the melting point worked out at 142.9 °C. In data set [1], the “ratio CB2 agonism over CB1 agonism” value amounted to 638. Moreover, the EC50 in data set [1] (setting [3]) is 1.26 nM. In addition, the “CB1 pEC50” value in data set [2] was determined as 6.09.
In turn, `COCCCOc1cc(S(=O)(=O)c2ccc3c(c2)nc(C(C)(C)C)n3CC2CCOCC2)ccn1` [Co. No. 151] came in with a melting point of 106.5 °C. Moreover, the “ratio CB2 agonism over CB1 agonism” value in data set [1] stood at 8035. The EC50 in data set [1] (setting [3]) is 0.479 nM. Moreover, the “CB1 pEC50” value in data set [2] was 5.41.
For `CC(C)(C)c1nc2cc(S(=O)(=O)c3ccnc(OCCCO)c3)ccc2n1CC1CCOCC1` [Co. No. 152], the melting point stood at 161.5 °C. The “ratio CB2 agonism over CB1 agonism” value in data set [1] was determined as 3090. Also, the EC50 in data set [1] (setting [3]) is 1.17 nM. For the same molecule, the “CB1 pEC50” value in data set [2] stood at 5.44.
Molecule `COCCCc1cc(S(=O)(=O)c2ccc3c(c2)nc(C(C)(C)C)n3CC2CCOCC2)ccn1` [Co. No. 154] gave a melting point of 143.4 °C. The “ratio CB2 agonism over CB1 agonism” value in data set [1] is recorded as over 9016. For the same molecule, in data set [1] (setting [3]), the EC50 is 1.12 nM. This molecule registered an EC50 in data set [2] of over 10000 nM.
Turning to `Cn1cc(S(=O)(=O)c2ccc3c(c2)nc(C(C)(C)C)n3CC2CCN(C=O)CC2)cn1` [Co. No. 156], the melting point came to 213.9 °C. Moreover, the “ratio CB2 agonism over CB1 agonism” value in data set [1] is given as 617. Moreover, the EC50 in data set [1] (setting [3]) was 4.07 nM. In data set [2], this molecule gave an EC50 of 2510 nM.
`CC(=O)NCCc1cc(S(=O)(=O)c2ccc3c(c2)nc(C(C)(C)C)n3CC2CCOCC2)ccn1` [Co. No. 158]: the melting point turned out to be 160.3 °C. In data set [1], the “ratio CB2 agonism over CB1 agonism” value is recorded as 5888. Also, the “CB2 pEC50” value in data set [1] (hCB2-CHO-K1 cells, forskolin-activated cAMP, pEC50=-log(EC50)) is reported as 8.85. For the same molecule, in data set [2], the “CB1 pEC50” value is listed as 5.08.
Regarding `CC(=O)N1CCC(Cn2c(C(C)(C)C)nc3cc(S(=O)(=O)c4ccc(C#N)s4)ccc32)CC1` [Co. No. 159], the melting point was determined as 181.2 °C. The “ratio CB2 agonism over CB1 agonism” value in data set [1] is over 4677. Besides, in data set [1] (setting [3]), the EC50 was 2.14 nM. Further, the EC50 in data set [2] was over 10000 nM.
As for `CO[C@H]1CC[C@@H](Cn2c(C(C)(C)C)nc3cc(S(=O)(=O)c4ccnc(F)c4)ccc32)CC1` [Co. No. 162], the melting point is 133.5 °C. Further, the “ratio CB2 agonism over CB1 agonism” value in data set [1] is over 27542. For the same molecule, the EC50 in data set [1] (setting [3]) is 0.363 nM. In addition, the EC50 in data set [2] was over 10000 nM.
For `CC(=O)N1CCC(Cn2c(C(C)(C)C)nc3cc(S(=O)(=O)c4cnn(C)c4)ccc32)CC1` [Co. No. 168], the melting point was 166.2 °C. For the same molecule, the “ratio CB2 agonism over CB1 agonism” value in data set [1] is recorded as over 1230. The EC50 in data set [1] (setting [3]) was 8.13 nM. The same molecule returned an EC50 in data set [2] of over 10000 nM.
